# Source: US9801901B2, “Alginate oligomers for use in overcoming multidrug resistance in bacteria” (priority 2009, dated 2017)
# Like-named read-outs stand apart in the source and are kept apart here. Marks after values point to notes of the source that are not given here.
# Assays:
# [1] = test system: Acinetobacter lwoffii (6056, V22); test: MIC-assay, Mueller-Hinton broth with G-block alginate, 384-well, OD600
# [2] = test system: V9 (Egypt) Acinetobacter baumannii; test: MIC assay, CAMHB with alginate oligomer, no visible growth; format: cell-based; conditions: Table 5, V9 MDR Acin. baum
# [3] = test system: Acinetobacter baumannii (MDR ACB, Libya, V4); test: MIC-assay, Mueller-Hinton broth with G-block alginate, 384-well, OD600
# [4] = test system: Staphylococcus aureus (MRSA) U50; test: MIC-assay, Mueller-Hinton broth with G-block alginate, 384-well, OD600 (Table 12); format: cell-based; conditions: MRSA 1040s, U50 MDR
# Description: Minimum inhibitory concentration (MICs) of different antibiotics for strains of Streptococcus oralis and Staphylococcus aureus (MRSA) displaying MDR phenotypes in the presence of varying concentrations of OligoCF-5/20 (0-10%). (MIC values are expressed in μg ml^−1).
# [5] = test system: PA01 Pseudomonas aeruginosa ATCC 15692; test: MIC assay, two-fold antibiotic dilutions in CAMHB with alginate oligomer, no visible growth; format: cell-based; conditions: Pseudomonas aeruginosa, ATCC15692, Table 1, PA01, read-out: MIC
# [6] = test system: Pseudomonas aeruginosa ATCC 39324, mucoid type strain (R79); test: MIC assay, CAMHB with alginate oligomer, no visible growth; format: cell-based; conditions: Pseudomonas aeruginosa, ATCC39324, Table 1, R79, read-out: MIC
# [7] = test system: Acinetobacter lwoffii (Egypt, V10); test: MIC-assay, Mueller-Hinton broth with G-block alginate, 384-well, OD600
# [8] = test system: Pseudomonas aeruginosa (R22, PSA, V1); test: as above
# [9] = test system: Pseudomonas aeruginosa (MDR 301, PSA, V2); test: as above; conditions: Pseudomonas aeruginosa, Table 8; V2; G-block (OligoCF-5/20) 10%
# [10] = test system: Pseudomonas aeruginosa MDR 301 from Poland (V2); test: MIC assay, CAMHB with alginate oligomer, no visible growth; format: cell-based; conditions: Pseudomonas aeruginosa, Table 1, V2 MDR 301 PA, read-out: MIC
# [11] = test system: Pseudomonas aeruginosa CFA 24-1, clinical mucoid strain (R80); test: as above; format: cell-based; conditions: Pseudomonas aeruginosa, Table 1, R80, read-out: MIC
# [12] = test system: V12 5725 (Wales) Klebsiella pneumoniae; test: as above; format: cell-based; conditions: Table 5, V12 MDR Kleb pneu
# [13] = test system: Pseudomonas aeruginosa MDR R22 from China (V1); test: as above; format: cell-based; conditions: Pseudomonas aeruginosa, Table 1, V1 MDR R22 PA, read-out: MIC
# Description: The study described in Example 1 was repeated with the following strains of bacteria and antibiotics as detailed in Tables 4, 5 and 6.
# [14] = test system: Burkholderia cepacia (LMG18941, ATCC-BAA-246); test: MIC-assay, Mueller-Hinton broth with G-block alginate, 384-well, OD600
# MDR Providencia stuartii = test: MIC-assay, Mueller-Hinton broth with G-block alginate, 384-well, OD600 (Table 11); format: cell-based; conditions: Providencia stuartii (IR57 India, V7) MDR
# Description: (§1) Minimum inhibitory concentration (MICs) of different antibiotics for strains of E. coli and Providencia stuartii displaying MDR phenotypes in the presence of varying concentrations of OligoCF-5/20 (0-10%). (MIC values are expressed in μg ml^−1).
# [15] = test system: strains of E. coli displaying MDR phenotypes; test: as above; format: cell-based; conditions: Escherichia coli, Escherichia coli (5702, Wales, V11) MDR
# Description: as §1
# [16] = Table 9, G-block (OligoCF-5/20) 0%
# [17] = Table 9, G-block (OligoCF-5/20) 2%
# [18] = Table 9, G-block (OligoCF-5/20) 6%
# [19] = Table 9, G-block (OligoCF-5/20) 10%
# [20] = G-block (OligoCF-5/20) 0%, read-out: MIC
# [21] = G-block (OligoCF-5/20) 2%, read-out: MIC
smiles,measurement,setting,value
C[C@H]1[C@H](NC(=O)/C(=N\OC(C)(C)C(=O)O)c2csc(N)n2)C(=O)N1S(=O)(=O)O [Aztreonam],MIC,[1]; [16],64 µg/mL
same,MIC,[1]; [17],32 µg/mL
same,MIC,[1]; [18],16 µg/mL
same,MIC,[1]; [19],4 µg/mL
same,MIC,"[2]; Acinetobacter baumannii, OligoCF-5/20 0G, read-out: MIC",> 512 µg/mL
same,MIC,[2]; OligoCF-5/20 +2% G,512^† μg/ml
same,MIC,[2]; OligoCF-5/20 +6% G,256^† μg/ml
same,MIC,[2]; OligoCF-5/20 +10% G,128^† μg/ml
same,MIC,[3]; [16],4 µg/mL
same,MIC,[3]; [17],4 µg/mL
same,MIC,[3]; [18],1 µg/mL
same,MIC,[3]; [19],0.5 µg/mL
same,MIC,[4]; [20],1020 µg/mL
same,MIC,[4]; [21],1020 µg/mL
same,MIC,[4]; G-block (OligoCF-5/20) 6%,512 µg/mL
same,MIC,[4]; G-block (OligoCF-5/20) 10%,512 µg/mL
same,MIC,[5]; OligoCF-5/20 0G,8 µg/mL
same,MIC,[5]; OligoCF-5/20 +2% G,16 µg/mL
same,MIC,[5]; OligoCF-5/20 +6% G,4 µg/mL
same,MIC,[5]; OligoCF-5/20 +10% G,2 µg/mL
same,MIC,[6]; OligoCF-5/20 0G,2 µg/mL
same,MIC,[6]; OligoCF-5/20 +2% G,2 µg/mL
same,MIC,[6]; OligoCF-5/20 +6% G,< 1 µg/mL
same,MIC,[6]; OligoCF-5/20 +10% G,< 1 µg/mL
same,MIC,[7]; [16],8 µg/mL
same,MIC,[7]; [17],4 µg/mL
same,MIC,[7]; [18],2 µg/mL
same,MIC,[7]; [19],1 µg/mL
same,MIC,"[8]; Table 8, G-block (OligoCF-5/20) 6%",0.0625 µg/mL
same,MIC,"[8]; Table 8, G-block (OligoCF-5/20) 10%",0.0312 µg/mL
same,MIC,[9],0.0625 µg/mL
same,MIC,[10]; OligoCF-5/20 0G,64 µg/mL
same,MIC,[10]; OligoCF-5/20 +2% G,16 µg/mL
same,MIC,[10]; OligoCF-5/20 +6% G,8 µg/mL
same,MIC,[10]; OligoCF-5/20 +10% G,8 µg/mL
same,MIC,[11]; OligoCF-5/20 0G,< 1 µg/mL
same,MIC,[11]; OligoCF-5/20 +2% G,< 1 µg/mL
same,MIC,[11]; OligoCF-5/20 +6% G,< 1 µg/mL
same,MIC,[11]; OligoCF-5/20 +10% G,< 1 µg/mL
same,MIC,"[12]; Klebsiella pneumoniae, OligoCF-5/20 0G, read-out: MIC",256 µg/mL
same,MIC,[12]; OligoCF-5/20 +2% G,512^‡ μg/ml
same,MIC,[12]; OligoCF-5/20 +6% G,128^† μg/ml
same,MIC,[12]; OligoCF-5/20 +10% G,64^† μg/ml
same,MIC,[13]; OligoCF-5/20 0G,32 µg/mL
same,MIC,[13]; OligoCF-5/20 +2% G,16 µg/mL
same,MIC,[13]; OligoCF-5/20 +6% G,< 4 µg/mL
same,MIC,[13]; OligoCF-5/20 +10% G,< 4 µg/mL
same,MIC,"[14]; ATCCBAA246|LMG18941, Table 8, G-block (OligoCF-5/20) 0%",> 16 µg/mL
same,MIC,"[14]; ATCCBAA246|LMG18941, Table 8, G-block (OligoCF-5/20) 2%",> 16 µg/mL
same,MIC,"[14]; ATCCBAA246|LMG18941, Table 8, G-block (OligoCF-5/20) 6%",> 16 µg/mL
same,MIC,"[14]; ATCCBAA246|LMG18941, Table 8, G-block (OligoCF-5/20) 10%",> 16 µg/mL
same,MIC,MDR Providencia stuartii; G-block (OligoCF-5/20) 0%,> 1020 µg/mL
same,MIC,MDR Providencia stuartii; G-block (OligoCF-5/20) 2%,> 1020 µg/mL
same,MIC,MDR Providencia stuartii; G-block (OligoCF-5/20) 6%,> 1020 µg/mL
same,MIC,MDR Providencia stuartii; G-block (OligoCF-5/20) 10%,> 1020 µg/mL
same,MIC,[15]; [20],256 µg/mL
same,MIC,[15]; [21],256 µg/mL
same,MIC,[15]; G-block (OligoCF-5/20) 6%,128 µg/mL
same,MIC,"[15]; G-block (OligoCF-5/20) 10%, read-out: MIC",64 µg/mL
